ChEMBL document CHEMBL1201862, “PubChem BioAssay data set” (2004)
Calls of active or inactive are those of the source.

What was measured:
[1] = molecular target: Heat shock protein HSP 90-alpha (Homo sapiens, UniProt P07900); assay type: functional, organism-based
[2] = molecular target: T1, Ubiquitin-conjugating enzyme E2 N (Homo sapiens, UniProt P61088); assay type: functional
T1 sequence (P61088 whole entry): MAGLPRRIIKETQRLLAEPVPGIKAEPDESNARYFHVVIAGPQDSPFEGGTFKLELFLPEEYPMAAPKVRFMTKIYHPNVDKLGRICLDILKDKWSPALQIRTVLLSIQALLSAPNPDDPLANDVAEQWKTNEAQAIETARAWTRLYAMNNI

[3] = molecular target: T1, Ubiquitin-conjugating enzyme E2 N; assay type: functional; remark: listed apart in the source
Bcl-2-related protein A1 = molecular target: T2, Bcl-2-related protein A1 (Mus musculus, UniProt Q07440); assay type: functional;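 note: confirmatory dose–response counterscreen on Bfl-1, used to check hits from a UBC13 polyubiquitin inhibitor campaign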
T2 sequence (Q07440 whole entry): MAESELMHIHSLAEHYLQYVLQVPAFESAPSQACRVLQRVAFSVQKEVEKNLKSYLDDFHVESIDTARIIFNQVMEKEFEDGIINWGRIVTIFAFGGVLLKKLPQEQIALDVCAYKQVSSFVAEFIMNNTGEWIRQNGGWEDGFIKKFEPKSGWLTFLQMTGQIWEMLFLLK

[4] = molecular target: Voltage-gated inwardly rectifying potassium channel KCNH2 (Homo sapiens, UniProt Q12809); conditions: Potency;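 note: confirmatory quantitative high-throughput screen measuring inhibition of hERG channel activity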
Chain of Voltage-gated inwardly rectifying potassium channel KCNH2 (Q12809 whole entry): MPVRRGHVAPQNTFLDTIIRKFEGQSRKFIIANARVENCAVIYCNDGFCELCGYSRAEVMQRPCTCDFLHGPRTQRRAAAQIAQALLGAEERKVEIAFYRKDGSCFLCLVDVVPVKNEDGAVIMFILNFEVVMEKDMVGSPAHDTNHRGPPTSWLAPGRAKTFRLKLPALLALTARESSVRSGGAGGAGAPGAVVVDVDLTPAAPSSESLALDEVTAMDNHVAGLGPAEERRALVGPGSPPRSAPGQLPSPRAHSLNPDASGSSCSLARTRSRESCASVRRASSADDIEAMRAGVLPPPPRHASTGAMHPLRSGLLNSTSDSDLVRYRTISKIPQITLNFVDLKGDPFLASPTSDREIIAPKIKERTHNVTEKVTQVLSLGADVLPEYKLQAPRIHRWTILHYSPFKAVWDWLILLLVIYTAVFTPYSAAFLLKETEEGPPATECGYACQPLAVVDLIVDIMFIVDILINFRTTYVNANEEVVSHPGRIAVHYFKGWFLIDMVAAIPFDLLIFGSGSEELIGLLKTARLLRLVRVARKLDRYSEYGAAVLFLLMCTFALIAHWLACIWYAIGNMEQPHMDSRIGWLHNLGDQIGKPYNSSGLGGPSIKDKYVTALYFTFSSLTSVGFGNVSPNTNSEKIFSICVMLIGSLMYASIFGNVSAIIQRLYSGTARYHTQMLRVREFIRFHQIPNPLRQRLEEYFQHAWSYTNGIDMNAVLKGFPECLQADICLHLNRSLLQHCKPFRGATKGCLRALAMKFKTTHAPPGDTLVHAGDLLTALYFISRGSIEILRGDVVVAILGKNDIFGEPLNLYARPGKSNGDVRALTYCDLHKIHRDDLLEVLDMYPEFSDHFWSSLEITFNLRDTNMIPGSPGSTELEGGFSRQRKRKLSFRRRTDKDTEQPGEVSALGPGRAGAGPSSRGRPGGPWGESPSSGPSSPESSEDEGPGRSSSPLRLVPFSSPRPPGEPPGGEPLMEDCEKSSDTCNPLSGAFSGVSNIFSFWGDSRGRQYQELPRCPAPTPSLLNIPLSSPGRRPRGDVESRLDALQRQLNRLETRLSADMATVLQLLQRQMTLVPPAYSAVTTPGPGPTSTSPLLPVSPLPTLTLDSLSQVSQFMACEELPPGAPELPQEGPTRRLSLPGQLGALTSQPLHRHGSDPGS

Escherichia coli = test: microbe, parasite or virus in culture
[5] = Luminescence Cell-Based Dose Retest to Confirm Inhibitors of Cancer Stem Cells. [Related pubchem assays (depositor defined):AID2717, AID2721]; assay type: functional; conditions: Homo sapiens
Melanocortin receptor 4 = Melanocortin receptor 4 (Homo sapiens, UniProt P32245); assay type: functional, cell-based;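 note: Cell-based assay with luminescence read-out, confirmatory dose-response testing for agonist activity of biased ligands at MC4R; human U2OS cells with tagged receptor and beta-arrestin; potency of agonists that increase receptor coupling to beta-arrestin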
Chain of Melanocortin receptor 4 (P32245 whole entry): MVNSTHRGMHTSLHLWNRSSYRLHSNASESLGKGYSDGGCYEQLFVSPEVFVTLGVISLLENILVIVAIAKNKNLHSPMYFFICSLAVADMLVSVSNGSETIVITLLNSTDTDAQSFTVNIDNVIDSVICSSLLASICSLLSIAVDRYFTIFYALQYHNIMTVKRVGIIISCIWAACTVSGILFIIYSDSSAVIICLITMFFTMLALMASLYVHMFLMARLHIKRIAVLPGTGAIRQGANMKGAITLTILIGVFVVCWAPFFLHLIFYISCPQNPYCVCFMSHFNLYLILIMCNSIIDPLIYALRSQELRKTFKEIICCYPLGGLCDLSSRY

Vero [6] = test: cells; assay type: functional, cell-based; conditions: Chlorocebus sabaeus
Vero [7] = test: cells; assay type: functional; conditions: Chlorocebus sabaeus
[8] = NIH-3T3 fibroblast cytotoxicity, dose response, cytotoxicity control for antifungal single agent project, cell-based, Alamar Blue, dry powder (AID 602188); assay type: functional
Cysteine protease ATG4B = molecular target: T3, Cysteine protease ATG4B (Homo sapiens, UniProt Q9Y4P1); assay type: functional;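 note: Fluorescence-based dose-response confirmation assay measuring inhibition of ATG4B activity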
T3 sequence (Q9Y4P1 whole entry): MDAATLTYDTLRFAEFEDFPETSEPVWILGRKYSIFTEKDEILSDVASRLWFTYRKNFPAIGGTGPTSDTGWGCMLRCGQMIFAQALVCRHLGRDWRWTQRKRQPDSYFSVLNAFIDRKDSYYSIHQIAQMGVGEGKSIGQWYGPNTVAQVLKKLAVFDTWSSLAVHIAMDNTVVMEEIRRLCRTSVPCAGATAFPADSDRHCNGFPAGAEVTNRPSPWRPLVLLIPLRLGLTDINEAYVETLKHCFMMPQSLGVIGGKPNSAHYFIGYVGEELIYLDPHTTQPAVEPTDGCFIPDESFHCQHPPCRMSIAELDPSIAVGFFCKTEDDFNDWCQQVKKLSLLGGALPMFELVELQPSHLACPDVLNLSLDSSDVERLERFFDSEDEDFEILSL

Phospholipase A2 = Phospholipase A2 (Homo sapiens, UniProt P04054); assay type: functional;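 note: confirmatory dose-response counterscreen on phospholipase A2, testing hits that came from an ultra-high-throughput screen for ATG4B inhibitors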
Chain of Phospholipase A2 (P04054 whole entry): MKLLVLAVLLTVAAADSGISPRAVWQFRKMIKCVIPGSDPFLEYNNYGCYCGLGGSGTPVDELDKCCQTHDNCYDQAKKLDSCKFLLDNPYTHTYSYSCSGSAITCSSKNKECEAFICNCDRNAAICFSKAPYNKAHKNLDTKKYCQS

With `CCCCCCOC(=O)Sc1nc2ccccc2o1` the AC50 [1] was 2.78 µM (active).
For `O=C1c2cccc3cccc(c23)C(=O)N1CCN1CCN(CC(O)COCc2ccc(Cl)cc2)CC1` (stereo not drawn), the IC50 [2] was 2.89 µM (active), the IC50 [3] was 2.31 µM (active) and the IC50 (Bcl-2-related protein A1) was > 20 µM (inactive).
For `C=C(C)C(=O)OCCCCCCCCCC`, the AC50 [4] was 3.55 µM (inconclusive).
For `CCN(Cc1ccccc1)S(=O)(=O)c1ccc(C(=O)N(CCCN(C)C)c2nc3cc4c(cc3s2)OCCO4)cc1`, the IC50 [2] was 2.81 µM (active), the IC50 [3] was 2.93 µM (active) and the IC50 (Bcl-2-related protein A1) was > 20 µM (inactive).
For `Cc1nc(NC(=O)c2ccco2)sc1-c1csc(Nc2ccc(Cl)cc2)n1`, the AC50 (Escherichia coli) was 39.7 µM (active) and the AC50 [5] was 2.03 µM (active).
With `Oc1cccc(Cl)c1Cl` the AC50 [4] was 5.01 µM (inconclusive).
With `COc1ccc2sc(-c3ccc(S(C)(=O)=O)cc3)c(C#Cc3cncn3C)c2c1` the EC50 (Melanocortin receptor 4) was > 89.2 µM (inactive).
With `CCn1c(=O)c2nc(Cl)[nH]c2n(CC)c1=O` the IC50 (Vero [6]) was 17 µM (active) and the CC50 (Vero [7]) was > 25 µM (active).
In the case of `Cc1ccc(C(=O)Nc2nnc(-c3ccccc3)o2)cc1C`, the AC50 [8] is reported as 14.2 µM (active).
In the case of `Oc1c(Br)cc(Br)cc1/C=N/c1ccc2c(c1)OCO2`, the IC50 (Cysteine protease ATG4B) is reported as 4.43 µM (active) and the IC50 (Phospholipase A2) is reported as 7.68 µM (active).
With `Oc1cc2c(cc1O)CN(C(=S)NCCc1ccc(Cl)cc1)CCC2` [CAPSAZEPINE] the AC50 [4] was 11.2 µM (inconclusive).
